In patent publication US20250268903A1, “RXFP1 AGONISTS” (BRISTOL-MYERS SQUIBB COMPANY, priority 2021, published 2025):

target: T1, human RXFP1 (Homo sapiens, UniProt Q9HBX9); test: hRXFP1 HEK293 cAMP assay (HTRF); type: cell-based; conditions: HEK293 cells stably expressing human RXFP1, 30 min at room temperature
T1 construct: expressed in transfected cells
T1 sequence (Q9HBX9 1-757): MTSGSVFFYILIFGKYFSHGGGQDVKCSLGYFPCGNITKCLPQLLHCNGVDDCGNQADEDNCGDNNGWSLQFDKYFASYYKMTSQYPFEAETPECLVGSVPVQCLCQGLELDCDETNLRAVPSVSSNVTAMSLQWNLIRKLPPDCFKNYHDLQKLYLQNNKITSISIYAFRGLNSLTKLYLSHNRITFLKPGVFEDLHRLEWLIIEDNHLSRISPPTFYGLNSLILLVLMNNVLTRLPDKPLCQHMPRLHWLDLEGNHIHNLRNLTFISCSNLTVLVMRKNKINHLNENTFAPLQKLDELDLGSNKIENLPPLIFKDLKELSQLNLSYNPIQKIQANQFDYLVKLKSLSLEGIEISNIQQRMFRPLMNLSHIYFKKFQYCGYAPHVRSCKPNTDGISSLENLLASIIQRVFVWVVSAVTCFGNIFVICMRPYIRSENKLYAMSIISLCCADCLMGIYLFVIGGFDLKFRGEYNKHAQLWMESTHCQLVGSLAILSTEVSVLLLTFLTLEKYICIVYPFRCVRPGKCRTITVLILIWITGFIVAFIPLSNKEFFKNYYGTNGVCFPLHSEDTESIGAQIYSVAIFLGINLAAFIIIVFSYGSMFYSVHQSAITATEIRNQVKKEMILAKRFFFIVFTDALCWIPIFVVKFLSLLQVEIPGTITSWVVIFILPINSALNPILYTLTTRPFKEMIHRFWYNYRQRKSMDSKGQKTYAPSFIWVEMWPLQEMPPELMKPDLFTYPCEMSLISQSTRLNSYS
Method in brief: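 Intracellular cAMP was read by HTRF, with potency fitted to a 4-parameter logistic curve. Compound exposure (0.010 nM–50 μM final, 2% DMSO) lasted 30 min at room temperature. Cells were hRXFP1-HEK293 at 1500 per well in IBMX-containing (0.5 mM) HEPES-buffered HBSS.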

| SMILES | EC50 [nM] |
| --- | --- |
| COc1ccc(CCCNC(=O)CO)cc1C(=O)N[C@@H]1C2CCC(/C2=C/C(F)(F)F)[C@@H]1C(=O)Nc1ccc(F)c(C(F)(F)F)c1 (stereo partly drawn) [Example 116, (2S,3R,7Z)-N-[4-fluoro-3-(trifluoromethyl)phe-nyl]-3-{5-[3-(2-hydroxyacetamido)pro-pyl]-2-methoxybenzamido}-7-(2,2,2-trifluoroethylidene)bi-cyclo[2.2.1]heptane-2-carboxamide] | 940 |
| COc1ccc(CC[C@H](C)O)cc1C(=O)N[C@@H]1C2CCC(/C2=C/C2CC2)[C@@H]1C(=O)Nc1ccc(F)c(C(F)(F)F)c1 (stereo partly drawn) [Example 94, (2S,3R,7Z)-7-(cyclopropylmethyli-dene)-N-[4-fluoro-3-(trifluoromethyl)phe-nyl]-3-{5-[(3S)-3-hydroxybutyl]-2-methoxybenzamido} bicyclo[2.2.1]heptane-2-carboxamide] | 62 |
| COc1ccc([C@H]2C[C@@H](O)C2)cc1C(=O)NC1C2CCC(/C2=C/C2CC2)[C@@H]1C(=O)Nc1ccc(F)c(C(F)(F)F)c1 (stereo partly drawn) [Example 147, (2S,3R,7Z)-7-(cyclopropylmethyli-dene)-N-[4-fluoro-3-(trifluoromethyl)phe-nyl]-3-{2-methoxy-5-[(1r,3r)-3-hydroxycyclobutyl]benzamido}bicyclo [2.2.1]heptane-2-carboxamide] | 21 |
| COc1ccc(/C=C/C(=O)N2CCCC2)cc1C(=O)N[C@H]1[C@@H](C(=O)Nc2ccc(F)c(C(F)(F)F)c2)[C@H]2CC[C@@H]1/C2=C\C(F)(F)F [Example 303, (1R,2S,3R,4R,7Z)-N-[4-fluoro-3-(trifluoromethyl)phenyl]-3-{2-methoxy-5-[(1E)-3-oxo-3-(pyrrolidin-1-yl)prop-1-en-1-yl]benzamido}-7-(2,2,2-trifluoroethylidene) bicyclo[2.2.1] heptane-2-carboxamide] | 77.9 |
| COc1ccc(C2CC(C(=O)N3CCC(O)CC3)C2)cc1C(=O)N[C@H]1[C@@H](C(=O)Nc2ccc(F)c(C(F)(F)F)c2)[C@H]2CC[C@@H]1/C2=C\C1CC1 (some centres unmarked) [Example 327] | 26.1 |
| COc1ccc(CCCNC(=O)C2CCOCC2)cc1C(=O)N[C@@H]1C2CCC(/C2=C/C(F)(F)F)[C@@H]1C(=O)Nc1ccc(F)c(C(F)(F)F)c1 (stereo partly drawn) [Example 115, N-[3-(3-{[(2R,3S,7Z)-3-{[4-fluoro-3-(trifluoromethyl)phe-nyl]carbamoyl}-7-(2,2,2-trifluoroethylidene)bi-cyclo[2.2.1]heptan-2-yl]carbamoyl}-4-methoxyphenyl)pro-pyl]oxane-4-carboxamide] | 536 |
| COc1ccc(CCCO)cc1C(=O)NC1C2CCC(/C2=C/C2CC(F)(F)C2)[C@@H]1C(=O)Nc1ccc(F)c(C(F)(F)F)c1 (stereo partly drawn) [Example 159, (2S,3R,7Z)-7-[(3,3-difluorocyclobutyl)methylidene]-N-[4-fluoro-3-(trifluoromethyl)phe-yl]-3-[5-(3-hydroxypropyl)-2-methoxybenzamideo] bicyclo[2.2.1]heptane-2-carboxamide] | 43 |
| COc1ccc(COC[C@@H]2C[C@@H]2C(=O)O)cc1C(=O)N[C@H]1[C@@H](C(=O)Nc2ccc(F)c(C(F)(F)F)c2)[C@H]2CC[C@@H]1/C2=C\C1CC1 [Example 292, (1S,2R)-2-{[(3-{[(1R.2R,3S,4R,7Z)-7-(cyclopropyl-methylidene)-3-{[4-fluoro-3-(trifluoromethyl)phenyl]carbamoyl}bicyclo[2.2.1]heptan-2-yl]carbamoyl}-4-methoxyphenyl)methoxy]methyl} cyclopropane-1-carboxylic acid] | 28.4 |
| COc1ccc(C2CCCC(NC(=O)C3CCOCC3)C2)cc1C(=O)N[C@@H]1C2CCC(/C2=C/C(F)(F)F)[C@@H]1C(=O)Nc1ccc(F)c(C(F)(F)F)c1 (single isomer, unassigned) [Example 51] | 2350 |
| COc1ccc(C2CCC(C(F)(F)F)CC2)cc1C(=O)NC1C2CCC(/C2=C/C(F)(F)F)[C@@H]1C(=O)Nc1ccc(F)c(C(F)(F)F)c1 (some centres unmarked) [Example 177, (7Z)-N-[4-fluoro-3-(trifluoromethyl)phe-nyl]-3-{2-methoxy-5-[4-(trifluoromethyl)cyclo-hexyl]benzamido}-7-(2,2,2-trifluoroethylidene)bi-cyclo[2.2.1]heptane-2-carboxamide] | 298 |
| COc1ccc(CCCCCCC#N)cc1C(=O)NC1C2CCC(/C2=C/C2CCC2)[C@@H]1C(=O)Nc1ccc(F)c(C(F)(F)F)c1 (some centres unmarked) [Example 192, (7Z)-3-[5-(6-cyanohexyl)-2-methoxybenzamido]-7-(cyclobutylmethyl-idene)-N-[4-fluoro-3-(trifluoromethyl)phe-nyl]bicyclo[2.2.1] heptane-2-carboxamide] | 33 |
| COc1ccc(COCCC(=O)O)cc1C(=O)N[C@@H]1C2CCC(/C2=C/c2ccccc2)[C@@H]1C(=O)Nc1ccc(F)c(C(F)(F)F)c1 (stereo partly drawn) [Example 28, 3-[(3-{[(2R,3S,7Z)-3-{[4-fluoro-3-(trifluoromethyl)phe-nyl]carbamoyl}-7-(phenylmethylidene)bicyclo[2.2.1]heptan-2-yl]carbamoyl}-4-methoxyphenyl)meth-oxy]propanoic acid] | 56 |
| COc1c(F)cc(C2CC3CC(CO)CC3C2)cc1C(=O)N[C@H]1[C@@H](C(=O)Nc2ccc(F)c(C(F)(F)F)c2)[C@H]2CC[C@@H]1/C2=C\C1CCCC1 (stereo partly drawn) [Example 370, (1R,2S,3R,4R,7Z)-7-(cyclopentyl-methylidene)-N-[4-fluoro-3-(trifluoromethyl)phenyl]-3-{3-fluoro-5-[5-(hydroxymethyl)-octahydropentalen-2-yl]-2-methoxybenzamido} bicyclo[2.2.1]heptane-2-carboxamide] | 9.7 |
| COc1c(F)cc(C(=O)NCC2(S(C)(=O)=O)CC2)cc1C(=O)N[C@H]1[C@@H](C(=O)N[C@H](C)C2(C)CC2)[C@H]2CC[C@@H]1/C2=C\C1CC1 [Example 369, N3-[(1R,2R,3S,4R,7Z)-7-(cyclopropyl-methylidene)-3-{[(1R)-1-(1-methylcyclopropyl)ethyl]carbamoyl}bicyclo[2.2.1]heptan-2-yl]-5-fluoro-N1-[(1-methanesulfonyl-cyclopropyl)methyl]-4-methoxybenzene-1,3-dicarboxamide] | 3 |
| COc1c(F)cc(C(=O)NCC2(S(C)(=O)=O)CC2)cc1C(=O)N[C@H]1[C@@H](C(=O)Nc2ccc(F)c(C(F)(F)F)c2)[C@H]2CC[C@@H]1/C2=C\C1CCCC1 [Example 367, N3-[(1R,2R,3S,4R,7Z)-7-(cyclopentyl-methylidene)-3-{[4-fluoro-3-(trifluoromethyl)phenyl]carbamoyl}bicyclo[2.2.1]heptan-2-yl]-5-fluoro-N1-[(1-methanesulfonyl-cyclopropyl)methyl]-4-methoxybenzene-1,3-dicarboxamide] | 2.3 |
| CNc1ccc(CCCO)cc1C(=O)N[C@H]1[C@@H](C(=O)Nc2ccc(F)c(C(F)(F)F)c2)[C@H]2CC[C@@H]1/C2=C\C(F)(F)F [Example 11, (1R,2S,3R,4R,Z)—N-(4-fluoro-3-(trifluoromethyl)phenyl)-3-(5-(3-hydroxypropyl)-2-(methylamino)benzamido)-7-(2,2,2-trifluoroethylidene) bicyclo[2.2.1]heptane-2-carboxamide] | 4710 |
| COc1ccc(CC(C)CO)cc1C(=O)N[C@@H]1C2CCC(/C2=C/C(F)(F)F)[C@@H]1C(=O)Nc1ccc(F)c(C(F)(F)F)c1 (single isomer, unassigned) [Example 67] | 193 |
